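Tested at 5 concentrations; 48 h exposure; 96-well plates; endpoints linearly interpolated, else capped at highest concentration. Here, GI50 denotes the concentration required for 50% inhibition of growth. Definition used: TGI = concentration required for complete inhibition of growth.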
Key:
Assay in all cases: NCI-60 cell line screen, 48 h
MALME-3M melanoma = tested on: MALME-3M melanoma
HL-60(TB) leukemia = tested on: HL-60(TB) leukemia
MDA-MB-468 breast = tested on: MDA-MB-468 breast
LOX IMVI melanoma = tested on: LOX IMVI melanoma
OVCAR-4 ovarian = tested on: OVCAR-4 ovarian
HS 578T breast = tested on: HS 578T breast
SF-268 CNS = tested on: SF-268 CNS
HOP-62 NSCLC = tested on: HOP-62 NSCLC
CAKI-1 renal = tested on: CAKI-1 renal
CCRF-CEM leukemia = tested on: CCRF-CEM leukemia
UACC-257 melanoma = tested on: UACC-257 melanoma
HOP-92 NSCLC = tested on: HOP-92 NSCLC
IGROV1 ovarian = tested on: IGROV1 ovarian
T-47D breast = tested on: T-47D breast
UACC-62 melanoma = tested on: UACC-62 melanoma
NCI-H460 lung = tested on: NCI-H460 lung
DU-145 prostate = tested on: DU-145 prostate
U251 CNS = tested on: U251 CNS
MCF7 breast = tested on: MCF7 breast
SK-MEL-28 melanoma = tested on: SK-MEL-28 melanoma
SK-OV-3 ovarian = tested on: SK-OV-3 ovarian
MOLT-4 leukemia = tested on: MOLT-4 leukemia
PC-3 prostate = tested on: PC-3 prostate
ACHN renal = tested on: ACHN renal
OVCAR-3 ovarian = tested on: OVCAR-3 ovarian
BT-549 breast = tested on: BT-549 breast
SF-295 CNS = tested on: SF-295 CNS
HCT-15 colon = tested on: HCT-15 colon
SNB-19 CNS = tested on: SNB-19 CNS
MDA-MB-435 = tested on: MDA-MB-435
RPMI-8226 leukemia = tested on: RPMI-8226 leukemia
A498 renal = tested on: A498 renal
A549 NSCLC = tested on: A549 NSCLC
OVCAR-8 ovarian = tested on: OVCAR-8 ovarian
NCI-H522 lung = tested on: NCI-H522 lung
NCI/ADR-RES ovarian = tested on: NCI/ADR-RES ovarian
OVCAR-5 ovarian = tested on: OVCAR-5 ovarian
786-0 renal = tested on: 786-0 renal
SR leukemia = tested on: SR leukemia
M14 melanoma = tested on: M14 melanoma
NCI-H23 lung = tested on: NCI-H23 lung
HCT-116 colon = tested on: HCT-116 colon
KM12 colon = tested on: KM12 colon
COLO 205 colon = tested on: COLO 205 colon
RXF 393 renal = tested on: RXF 393 renal
TK-10 renal = tested on: TK-10 renal
HT29 colon = tested on: HT29 colon
SN12C renal = tested on: SN12C renal
SF-539 CNS = tested on: SF-539 CNS
NCI-H226 lung = tested on: NCI-H226 lung
HCC-2998 colon = tested on: HCC-2998 colon
EKVX NSCLC = tested on: EKVX NSCLC
K-562 leukemia = tested on: K-562 leukemia
SK-MEL-5 melanoma = tested on: SK-MEL-5 melanoma
SW-620 colon = tested on: SW-620 colon

`O=C(Nc1ccc(F)cc1)Nc1nc2ccc([N+](=O)[O-])cc2s1` was tested. Which GI50 (MALME-3M melanoma) did it give?
The GI50 was 1.96 µM.

What about the TGI (MALME-3M melanoma) of the same compound?
The TGI was 5.38 µM.

What about the GI50 (HL-60(TB) leukemia) of the same compound?
Its GI50 is 1.97 µM.

And the TGI (HL-60(TB) leukemia)?
Its TGI is 4.67 µM.

What about the GI50 (MDA-MB-468 breast) of the same compound?
Its GI50 is 2.36 µM.

And the TGI (MDA-MB-468 breast)?
Its TGI is 6.75 µM.

What about the GI50 (LOX IMVI melanoma) of the same compound?
The GI50 was 3.58 µM.

And the TGI (LOX IMVI melanoma)?
The TGI was 12.8 µM.

And the GI50 (OVCAR-4 ovarian)?
The GI50 was 3.3 µM.

And the TGI (OVCAR-4 ovarian)?
Its TGI is 13.2 µM.

What about the GI50 (HS 578T breast) of the same compound?
The GI50 was 2.6 µM.

What about the TGI (HS 578T breast) of the same compound?
The TGI was 8.28 µM.

And the GI50 (SF-268 CNS)?
The GI50 was 2.78 µM.

And the TGI (SF-268 CNS)?
Its TGI is 11.3 µM.

What about the GI50 (HOP-62 NSCLC) of the same compound?
Its GI50 is 3.19 µM.

And the TGI (HOP-62 NSCLC)?
Its TGI is 11.8 µM.

And the GI50 (CAKI-1 renal)?
The GI50 was 2.96 µM.

What about the TGI (CAKI-1 renal) of the same compound?
The TGI was 10.7 µM.

And the GI50 (CCRF-CEM leukemia)?
Its GI50 is 2.61 µM.

What about the TGI (CCRF-CEM leukemia) of the same compound?
The TGI was 10.5 µM.

And the GI50 (UACC-257 melanoma)?
Its GI50 is 2.27 µM.

And the TGI (UACC-257 melanoma)?
The TGI was 6.48 µM.

What about the GI50 (HOP-92 NSCLC) of the same compound?
The GI50 was 2.59 µM.

And the TGI (HOP-92 NSCLC)?
Its TGI is 7.13 µM.

And the GI50 (IGROV1 ovarian)?
The GI50 was 3.93 µM.

What about the TGI (IGROV1 ovarian) of the same compound?
The TGI was 14.5 µM.

What about the GI50 (T-47D breast) of the same compound?
Its GI50 is 2.58 µM.

What about the TGI (T-47D breast) of the same compound?
Its TGI is 7.68 µM.

What about the GI50 (UACC-62 melanoma) of the same compound?
The GI50 was 2.62 µM.

What about the TGI (UACC-62 melanoma) of the same compound?
The TGI was 9.22 µM.

And the GI50 (NCI-H460 lung)?
The GI50 was 2.89 µM.

What about the TGI (NCI-H460 lung) of the same compound?
Its TGI is 9.77 µM.

And the GI50 (DU-145 prostate)?
Its GI50 is 3.94 µM.

What about the TGI (DU-145 prostate) of the same compound?
The TGI was 14 µM.

And the GI50 (U251 CNS)?
The GI50 was 3.3 µM.

And the TGI (U251 CNS)?
The TGI was 11.3 µM.

And the GI50 (MCF7 breast)?
Its GI50 is 2.51 µM.

What about the TGI (MCF7 breast) of the same compound?
The TGI was 8.65 µM.

And the GI50 (SK-MEL-28 melanoma)?
Its GI50 is 3 µM.

What about the TGI (SK-MEL-28 melanoma) of the same compound?
Its TGI is 11 µM.

What about the GI50 (SK-OV-3 ovarian) of the same compound?
Its GI50 is 2.14 µM.

And the TGI (SK-OV-3 ovarian)?
The TGI was 6.98 µM.

And the GI50 (MOLT-4 leukemia)?
Its GI50 is 2.41 µM.

What about the TGI (MOLT-4 leukemia) of the same compound?
The TGI was 6.77 µM.

What about the GI50 (PC-3 prostate) of the same compound?
The GI50 was 3.48 µM.

And the TGI (PC-3 prostate)?
The TGI was 12.3 µM.

What about the GI50 (ACHN renal) of the same compound?
Its GI50 is 3.09 µM.

And the TGI (ACHN renal)?
The TGI was 9.82 µM.

And the GI50 (OVCAR-3 ovarian)?
The GI50 was 3.45 µM.

And the TGI (OVCAR-3 ovarian)?
The TGI was 12.1 µM.

What about the GI50 (BT-549 breast) of the same compound?
The GI50 was 1.95 µM.

And the TGI (BT-549 breast)?
The TGI was 5.03 µM.

What about the GI50 (SF-295 CNS) of the same compound?
The GI50 was 2.04 µM.

And the TGI (SF-295 CNS)?
Its TGI is 5.27 µM.

And the GI50 (HCT-15 colon)?
Its GI50 is 2.73 µM.

What about the TGI (HCT-15 colon) of the same compound?
The TGI was 10.2 µM.

What about the GI50 (SNB-19 CNS) of the same compound?
Its GI50 is 3.21 µM.

What about the TGI (SNB-19 CNS) of the same compound?
Its TGI is 12.2 µM.

And the GI50 (MDA-MB-435)?
The GI50 was 3.18 µM.

What about the TGI (MDA-MB-435) of the same compound?
Its TGI is 11.3 µM.

What about the GI50 (RPMI-8226 leukemia) of the same compound?
The GI50 was 1.92 µM.

What about the TGI (RPMI-8226 leukemia) of the same compound?
The TGI was 5.04 µM.

What about the GI50 (A498 renal) of the same compound?
The GI50 was 2.26 µM.

What about the TGI (A498 renal) of the same compound?
Its TGI is 6.46 µM.

What about the GI50 (A549 NSCLC) of the same compound?
The GI50 was 2.75 µM.

And the TGI (A549 NSCLC)?
The TGI was 11.6 µM.

And the GI50 (OVCAR-8 ovarian)?
Its GI50 is 3.42 µM.

What about the TGI (OVCAR-8 ovarian) of the same compound?
The TGI was 11.9 µM.

What about the GI50 (NCI-H522 lung) of the same compound?
Its GI50 is 2.37 µM.

And the TGI (NCI-H522 lung)?
The TGI was 7.56 µM.

What about the GI50 (NCI/ADR-RES ovarian) of the same compound?
Its GI50 is 2.85 µM.

What about the TGI (NCI/ADR-RES ovarian) of the same compound?
Its TGI is 9.36 µM.

And the GI50 (OVCAR-5 ovarian)?
The GI50 was 3.45 µM.

What about the TGI (OVCAR-5 ovarian) of the same compound?
Its TGI is 12.9 µM.

What about the GI50 (786-0 renal) of the same compound?
The GI50 was 3.07 µM.

What about the TGI (786-0 renal) of the same compound?
The TGI was 11.5 µM.

And the GI50 (SR leukemia)?
Its GI50 is 1.86 µM.

And the TGI (SR leukemia)?
The TGI was 5.02 µM.

And the GI50 (M14 melanoma)?
The GI50 was 2.7 µM.

What about the TGI (M14 melanoma) of the same compound?
The TGI was 10.7 µM.

And the GI50 (NCI-H23 lung)?
The GI50 was 2.45 µM.

And the TGI (NCI-H23 lung)?
The TGI was 6.21 µM.

What about the GI50 (HCT-116 colon) of the same compound?
Its GI50 is 2.92 µM.

And the TGI (HCT-116 colon)?
The TGI was 10.4 µM.

And the GI50 (KM12 colon)?
Its GI50 is 3.05 µM.

And the TGI (KM12 colon)?
The TGI was 10.5 µM.

What about the GI50 (COLO 205 colon) of the same compound?
The GI50 was 2.1 µM.

And the TGI (COLO 205 colon)?
The TGI was 3.97 µM.

What about the GI50 (RXF 393 renal) of the same compound?
Its GI50 is 2.65 µM.

What about the TGI (RXF 393 renal) of the same compound?
The TGI was 8.72 µM.

And the GI50 (TK-10 renal)?
The GI50 was 3.29 µM.

And the TGI (TK-10 renal)?
Its TGI is 12 µM.

What about the GI50 (HT29 colon) of the same compound?
The GI50 was 3.42 µM.

What about the TGI (HT29 colon) of the same compound?
The TGI was 11 µM.

What about the GI50 (SN12C renal) of the same compound?
Its GI50 is 2.59 µM.

What about the TGI (SN12C renal) of the same compound?
The TGI was 8.12 µM.

What about the GI50 (SF-539 CNS) of the same compound?
The GI50 was 2.59 µM.

And the TGI (SF-539 CNS)?
Its TGI is 6.91 µM.

And the GI50 (NCI-H226 lung)?
Its GI50 is 3.34 µM.

What about the TGI (NCI-H226 lung) of the same compound?
The TGI was 11.7 µM.

And the GI50 (HCC-2998 colon)?
Its GI50 is 3.56 µM.

What about the TGI (HCC-2998 colon) of the same compound?
The TGI was 12.5 µM.

What about the GI50 (EKVX NSCLC) of the same compound?
The GI50 was 2.9 µM.

And the TGI (EKVX NSCLC)?
Its TGI is 10.3 µM.

And the GI50 (K-562 leukemia)?
Its GI50 is 3.03 µM.

What about the TGI (K-562 leukemia) of the same compound?
Its TGI is 10.4 µM.

What about the GI50 (SK-MEL-5 melanoma) of the same compound?
The GI50 was 1.73 µM.

And the TGI (SK-MEL-5 melanoma)?
The TGI was 3.3 µM.

And the GI50 (SW-620 colon)?
Its GI50 is 3.41 µM.

And the TGI (SW-620 colon)?
The TGI was 12.7 µM.
